Patent publication US20120301510A1, “TOLEROGENIC SYNTHETIC NANOCARRIERS COUPLED TO CD1D-RESTRICTED ANTIGENS AND METHODS OF USE” (Selecta Biosciences, Inc., priority 2011, published 2012)

Test system: iNKT cells
Assay: iNKT cell activation in mice after injection of aGC and/or rapamycin, soluble or in nanocarriers (flow cytometry of liver lymphocytes)
Assay type: in vivo
Settings: about 4 h after injection
Experimental: Mice were designated to groups that received PBS alone, soluble aGC, NPaGC, sol aGC+solRAPA, sol aGC+NP RAPA, NPaGC+solRAPA or NPaGC+NP RAPA. Mice were injected at 9 am and at 9.30 AM received BrefeldinA i.v. to prevent release of intracellular cytokines produced. At 1 pm, mice were sacrificed and the liver was perfused with PBS and processed to obtain a single cell suspension enriched for lymphocytes. Cells were stained with cell surface markers for iNKT cells (agc-loaded CD1d tetramers) and T cells receptor (TCRb) and activation marker CD69. The cell suspension was then permeabilized and intracellular cytokine staining was performed for Th1 cytokine IFN-γ, and Th2 cytokines IL-4 and the anti-inflammatory cytokine IL-10. Cells were acquired on a FacsCanto flow cytometer and analyzed on by FlowJo.

In the case of CCCCCCCCCCCCCCCCCCCCCCCCCC(=O)N[C@@H](CO[C@H]1O[C@H](CO)[C@H](O)[C@H](O)[C@H]1O)[C@H](O)[C@H](O)CCCCCCCCCCCCCC [aGC, α-Galactosyl Ceramide (KRN7000)], the “iNKT cell activation as seen by cytokine production and upregulation of CD69 on their surface” value is reported as “activated”.
